Results on 5 compounds are retold here after patent US8883739B2, “Osteocalcin as a treatment for male reproductive disorders” (The Trustees of Columbia University in the City of New York, priority 2010, dated 2014).

Where no end group is shown, it is not given here.

The target in experiment [1] is T1, GPCR6A (Mus musculus, UniProt Q8K4Z6).
T1 sequence (Q8K4Z6 21-928): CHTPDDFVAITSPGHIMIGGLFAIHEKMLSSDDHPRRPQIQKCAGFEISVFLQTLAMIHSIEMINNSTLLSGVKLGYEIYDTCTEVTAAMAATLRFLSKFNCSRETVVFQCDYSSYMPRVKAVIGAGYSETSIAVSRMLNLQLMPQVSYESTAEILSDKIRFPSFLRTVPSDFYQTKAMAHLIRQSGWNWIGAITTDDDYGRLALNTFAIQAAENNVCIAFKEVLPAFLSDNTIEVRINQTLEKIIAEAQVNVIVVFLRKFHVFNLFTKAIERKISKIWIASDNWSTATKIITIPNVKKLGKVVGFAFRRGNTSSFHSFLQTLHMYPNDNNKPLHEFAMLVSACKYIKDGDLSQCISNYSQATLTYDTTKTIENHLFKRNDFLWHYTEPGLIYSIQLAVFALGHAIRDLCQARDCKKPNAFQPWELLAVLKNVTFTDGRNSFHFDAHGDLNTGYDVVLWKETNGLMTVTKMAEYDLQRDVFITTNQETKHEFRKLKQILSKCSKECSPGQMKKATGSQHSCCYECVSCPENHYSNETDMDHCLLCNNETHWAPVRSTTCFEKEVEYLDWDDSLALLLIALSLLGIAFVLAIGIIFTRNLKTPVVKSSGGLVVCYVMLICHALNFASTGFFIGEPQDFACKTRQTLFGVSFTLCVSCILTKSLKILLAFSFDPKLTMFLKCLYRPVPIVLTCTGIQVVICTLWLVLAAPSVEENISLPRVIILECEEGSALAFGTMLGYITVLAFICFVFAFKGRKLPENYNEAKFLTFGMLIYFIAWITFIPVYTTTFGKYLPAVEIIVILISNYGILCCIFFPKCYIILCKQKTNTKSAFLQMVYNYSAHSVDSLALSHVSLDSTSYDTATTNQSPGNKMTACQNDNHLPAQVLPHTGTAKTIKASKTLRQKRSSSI
The following applies: Christiansen et al., 2007; cited from earlier work.

In experiment [2] the test system is WT mice. Kind of experiment: Circulating testosterone after osteocalcin injection in WT mice. The format is in vivo, mouse. The following applies: injection 3 ng/g of body weight, 1, 4 and 8 hours. As to the method:
(§1) Caudal epididymides were minced in 1 ml PBS and the number of cells released counted after 1 hour. The total sperm count was assessed in the final suspension by using a hemacytometer (Dakhova et al., 2009, Endocrinology 150:404-412). Circulating levels of testosterone, estradiol (E2), and progesterone were measured by radioimmunoassay (RIA) from Diagnostic Systems Laboratories (Testosterone RIA DSL-4000, Estradiol RIA DSL-43100, and Progesterone RIA-3900).

Experiment [3] deals with primary Leydig cells. Description: Measurement of intracellular calcium in primary Leydig cells. It counts as cell-based, mouse. The method, then:
Isolated primary Leydig cells were resuspended in buffer containing 95 mM NaCl, 4.8 mM KCl, 1.2 mM MgSO4, 1.2 mM KH2PO4, 5.6 mM glucose, 25 mM NaHCO3, 1.7 mM CaCl2, 0.25 mM sodium purivate, 1× PenStrep, 20 mM HEPES, 0.3% BSA, pH 7.4 at 37° C. (reagents from Sigma Aldrich, except for sodium pyruvate, PenStrep and HEPES from Invitrogen), plated at the density of 17-25000 cells/well on 96-well plate and placed in an incubator at 33° C., 5% CO2 for 2 hours. Afterward, the FLIPR dye (Calcium Plus Assay Kit Dye, Molecular Devices) diluted in the same buffer supplemented with 2.5 mM probenecid, pH 7.4 was exchanged for the previous medium and incubated with the cells for an additional 30-45 minutes. Following the incubation with the dye, cells were placed in a BD Pathway 855 High-Content Bioimager, recorded for 10-20 seconds to get baseline fluorescence, and then stimulated with doses of osteocalcin ranging from 0.3 to 500 ng/ml as well as control substances: medium, calcium ionophore A23187, 10% FBS, 400 μM Arginine^2+, 100 μM ATP/UTP mix and recorded for an additional 2-5 minutes. The probing time was varied between 1 and 5 seconds. Obtained images were analyzed for the change in fluorescence using ImageJ 1.41.

For experiment [4], the system named is testis explants. Kind of experiment: Osteocalcin stimulation of testis explants, testosterone RIA. It counts as cell-based, mouse. Conditions: increasing amounts of osteocalcin (0-100 ng/ml). As to the method: (§2) Adult mouse Leydig cells were isolated by mechanical dissociation of the testes followed by purification on a 0-90% Percoll gradient (Hunter et al., 1982, Mol. Cell. Endocrinol. 25:35-47; Schumacher et al., 1978, FEBS Lett. 91:333-338). Primary Leydig cells were cultured in Minimal Essential Medium (MEM+GlutaMAX, Invitrogen) supplemented with 1× PenStrep, 25 mM HEPES, pH 7.4 and 0.07% BSA at 33° C. in 5% CO2. After 3 hours of attaching and starvation, cells were washed once with culture medium and then used for experiments. The preparation of testis explants was adapted from Powlin et al., 1998, Toxicol. Sci. 46:61-74. Explants were washed 3 times with PBS 1× and placed in serum free RPMI medium for 2 hours before being used for experiments.
(§3) After 1 hour, an aliquot of medium was collected for measurements of testosterone. Cells were then maintained for 3 additional hours and lysed in 1 ml TRIZOL® (Invitrogen) for RNA isolation.
as §1

The test system of experiment [5] is Leydig cells. Kind of experiment: CREB phosphorylation Western blot of Leydig cells. The format is cell-based, mouse. The method, then:
(§4) Western blotting was performed according to standard procedures. Frozen testes were homogenized and lysed with 1×RIPA buffer. Membranes were blocked and then incubated overnight with primary antibody in TBST-5% BSA, followed by incubation with appropriate HRP-conjugated secondary antibody. Signals were visualized with ECL. The following primary antibodies were used: anti-phospho-tyrosin (9416), anti-pERK1/2 (4370), anti-ERK1/2 (9102), anti-pCREB (9198), anti-CREB (4820), anti-Cleaved Caspase-3 (Asp175) (9661) (all from Cell Signaling), and anti-tACE (H-300): sc-13973 and anti-CHD5 (H-185): sc-68390 from Santa Cruz; the anti-osteocalcin was described in Ferron et al., 2010, Biochem. Biophys. Res. Comm. 397:691-696.
Background: Immunoblotting shows a protein as a band on a membrane.

Experiment [6] deals with Leydig cell cultures. Kind of experiment: Expression of testosterone biosynthesis enzymes in Leydig cell cultures treated with uncarboxylated osteocalcin. The format is cell-based, mouse. The following applies: qPCR. The method, then: as §2, §3
(§5) RNA was purified from tissues, primary Leydig cells, or cultured cells using TRIZOL® (Invitrogen). RNA isolation, cDNA preparation, and qPCR analysis was carried out following standard protocols. qPCR analyses were performed using specific quantitative PCR primers from SABiosciences.
For orientation: Quantitative PCR measures a nucleic acid by following its amplification.

In experiment [7] the test system is TM3 Leydig cells. Kind of experiment: ERK1/2 phosphorylation Western blot of Leydig cells. It counts as cell-based, mouse. The method, then:
as §4

In experiment [8] the test system is WT mice. Description: Daily osteocalcin injections in WT mice for 12 weeks. It counts as in vivo, mouse. The method, then: WT mice (n=6) were injected daily with either 3 ng/g or 30 ng/g of uncarboxylated osteocalcin for 12 weeks. […] Likewise, serum testosterone levels were increased in osteocalcin-injected mice compared to vehicle-injected mice (FIG. 7D).
as §1
One testis or ovary from each mouse was randomly selected for molecular analysis and the other one was used for histology. Specimens were collected, weighed, and fixed in Bouin's fixative for histological analyses before being dehydrated through graded ethanol, processed for paraffin embedding, and serially sectioned at 5 μm. For histological analysis, sections of testes and ovaries were stained with periodic acid-Schiff and counterstained with hematoxylin. TUNEL labeling was performed using the ApopTag Peroxydase In Situ Apoptosis detection kit (Millipore-57100). Apoptotic indices were determined by counting the total number of TUNEL-positive cells or the number of TUNEL positive spermatocytes for all stage tubules. Approximately 500 tubules were counted on at least 4 cross-sections located at midtestis for each animal.

In experiment [9] the target is T2, GPRC6a (Mus musculus, UniProt Q8K4Z6).
T2 construct: testes from 8-week old mice were snap frozen in liquid nitrogen and 20 μm thick sections were prepared; from tissue; host or cells: mouse testis sections (Leydig cells), 8-week old mice
T2 sequence (Q8K4Z6 21-928): T1 sequence (Q8K4Z6 21-928)
Kind of experiment: Receptor binding assay with biotinylated osteocalcin on testis sections. The method, then:
For binding studies, testes from 8-week old mice were snap frozen in liquid nitrogen and 20 μm thick sections were prepared and dessicated overnight at +4° C. under vacuum. On the following day, sections were rehydrated in ice-cold binding buffer (50 mM TrisHCl, pH 7.4, 10 mM MgCl2, 0.1 mM EDTA and 0.1% BSA) for 15 minutes and incubated for 1 hour in the presence of biotinylated osteocalcin. […] After 3 washes in cold PBS, sections were incubated for 1 hour in the detection system containing 0.1% BSA (ABC Elite, Vector Laboratories), washed again, and incubated with DAB peroxidase substrate kit (Vector Laboratories) according to the manufacturer's protocol. After a final wash, sections were mounted in water-based mounting medium. As negative controls, sections incubated with the detection system only (ABC Elite and DAB) or OstR−/− testis sections (Basura et al., 2008, Hear. Res. 244:45-50) were used.

In experiment [10] the test system is primary Leydig cells. Description: Osteocalcin stimulation of primary Leydig cells, testosterone RIA. The format is cell-based, mouse. The following applies: increasing amounts of osteocalcin (0-100 ng/ml). The method, then:
as §2, §3, §1

Experiment [11] deals with TM3 Leydig cells. Kind of experiment: cAMP quantification in Leydig cells. The following applies: 30 minutes, 0.5 mM IBMX. The format is cell-based, mouse. As to the method:
For cAMP measurements, TM3 Leydig cells were plated in 6 cm dishes (10^7 cells per dish) a day before experiment. Cells were serum starved for 16 hours (in the presence of 0.1% BSA) then pre-incubated in the presence of 0.5 mM IBMX for 30 minutes and stimulated with the indicated concentration of osteocalcin (also in the presence of 0.5 mM IBMX) for 30 minutes. cAMP concentration was measured with the Parameter cAMP kit (R&D Systems, KGE002).

Experiment [12] relates to TM3 Leydig cells. Kind of experiment: Anti-phospho-tyrosine Western blot of Leydig cells. The format is cell-based, mouse. The following applies: 1 minute. The method, then: as §4
Experiment [13] has as its system TM3 Leydig cells. Kind of experiment: qPCR of steroidogenic genes in TM3 Leydig cells treated with osteocalcin. The format is cell-based, mouse. The following applies: osteocalcin 0.3 to 300 ng/ml, 2 hours. The method, then:
TM3 cells were treated with increasing amounts of osteocalcin and assayed for the expression of genes encoding enzymes of the steroidogenic cascade. […] Thus, whether looked at by in vivo or cell-based assays, osteocalcin promotes testosterone biosynthesis.
Gene expression analyses were performed using real time PCR. DNAse I-treated total RNA was converted to cDNA with the SuperScript III kit (Invitrogen). Real-time PCR were performed using the Taq SYBR Green Supermix with ROX (Biorad) on an MX3000 instrument (Stratagene); beta-actin amplification was used as an internal reference for each sample. All primers were from SuperArray.
as §5

[14] abbreviates: WT mice, 3 ng/g or 30 ng/g daily for 12 weeks, both doses.

For `NCCCC[C@H](N)C(=O)O` [lysine], the “activation of GPCR6A” value in experiment [1] is “activate”.

On to `NCCC[C@H](N)C(=O)O` [ornithine], for which the “activation of GPCR6A” value in experiment [1] is reported as “activate”.

With `N=C(N)NCCC[C@H](N)C(=O)O` [arginine], the “activation of GPCR6A” value in experiment [1] is on record as “activate”.

Regarding “uncarboxylated osteocalcin: Recombinant osteocalcin bacterially produced as GST fusion, cleaved with thrombin; completely undercarboxylated at all three sites (YLGASVPSPDPLEPTREQCELNPACDELSDQYGLKTAYKRIYGITI)”, in [2], the “circulating levels of testosterone” value is recorded as “increased”. Further, the intracellular calcium accumulation result in experiment [3] is “did not induce”. Also, the testosterone secretion entry in experiment [4] and in [10] was “dose-dependent increase” throughout. Besides, the CREB phosphorylation entry in experiment [5] is reported as “favors”. Also, the “expression of StAR, Cyp11a, Cyp17 and 3β-HSD” value in experiment [6] is “increased”. For the same compound, the “ERK activation (ERK1/2 phosphorylation)” value in experiment [7] (listed as Osteocalcin) was “did not induce”; in experiment [7] (listed as osteocalcin), “absence of ERK1/2 phosphorylation”. Moreover, the serum testosterone levels entry in experiment [8] (WT mice injected daily, compared to vehicle-injected mice) is “increased”. For the same compound, the sperm cell apoptosis result in experiment [8] (setting [14]) is “decreased”. For the same compound, in [8] (setting [14]), the sperm count result is given as “significantly increased”. For the same compound, in [8] (setting [14]), the testis weight result is recorded as “significantly increased”. In addition, in experiment [9] (excess (100 fold) of unlabeled competitor, WT testis sections), the “competition of osteocalcin binding” value is reported as “competed away”. Moreover, the figures for the cAMP production result in [11] (listed as Osteocalcin) and in experiment [11] (listed as osteocalcin) were “consistently induced” and “increased”, respectively. In addition, the tyrosine phosphorylation result is on record as “did not induce” in experiment [12] (listed as Osteocalcin) and “not in osteocalcin treated cells” in experiment [12] (listed as osteocalcin). In experiment [13], the “expression of StAR, Cyp11a and Cyp17” value is given as “specifically increased”.

“biotinylated osteocalcin: biotinylated osteocalcin used as a ligand in binding assays on mouse testes (YLGASVPSPDPLEPTREQCELNPACDELSDQYGLKTAYKRIYGITI; ends and bridges not checked; also: biotinylated, site not given here)”: the “binding to GPRC6a-deficient testes” value in [9] (GPRC6a-deficient testis sections) was “no binding was detected”. In addition, in experiment [9] (WT mouse testis sections), the “binding to Leydig cells” value is listed as “bound”.
